In patent US11400101B2, “Treatment of allergic rhinitis using a combination of mometasone and olopatadine” (GLENMARK SPECIALTY S.A., priority 2013, dated 2022):
Marks after values point to notes of the source that are not given here.

How the values were obtained:
[1] = Plasma pharmacokinetics of TP-1 in the Phase III study, day 1 and day 8 (steady state); assay type: in vivo, human; details: for Mometasone furoate AUCtau, Geo Mean / Mometasone furoate AUCtau, Mean / Mometasone furoate AUCtau, Min-Max / Mometasone furoate Cmax, Geo Mean / Mometasone furoate Cmax, Mean / Mometasone furoate Cmax, Min-Max / Mometasone furoate Tmax, Median: patients receiving TP-1 twice daily
Source text: This study consisted of four visits to the study site. After the initial screening visit (Visit 1), subjects who met all study selection criteria were required to undergo a single-blind placebo run-in period for 7-10 days. Following the completion of the run-in period, eligible subjects meeting the randomization criteria were enrolled and randomized to one of the four treatment arms. Subjects were dispensed medication as per the randomization list. Randomized subjects were required to undergo a 2 week (14 days) treatment period as per the protocol to assess the efficacy and safety of the assigned treatment. Subjects were instructed to record the symptom scores in a symptom assessment diary. They were also scheduled to have at least two blood samples for PK assessment during the treatment period.
• Change from baseline in average AM and PM subject-reported 12-hour rTNSS (reflective TNSS) over the 14-day treatment period. Secondary Endpoints • Change from baseline in average AM and PM subject-reported 12-hour iTNSS (instantaneous TNSS) over the 14 day treatment period. • Change from baseline in average AM and PM subject-reported 12-hour rTOSS (reflective TOSS) over the 14-day treatment period. • Onset of action for each treatment are assessed by comparing the change from baseline in post-treatment iTNSS between each active treatment and placebo at defined time points (prior to first dose (pre-dose), 15 min, 30 min, 45 min, 60 min, 90 min, 120 min, 150 min, 180 min, 210 min, and 240 min) after the first study treatment for 4 hours. • Change from baseline in the overall Rhinoconjunctivitis Quality of Life questionnaire (RQLQ)—Standardized Activities (RQLQ(S)) score on Day 15 (Visit 4) for the Full Analysis Set (FAS). Pharmacokinetic Endpoints • Plasma PK: Maximum plasma concentration (Cmax), time to attain Cmax (Tmax), and area under the plasma concentration-time curve over the dosing interval (AUCtau) will be estimated for mometasone furoate and olopatadine on Day 1 and Day 8 based on the pharmacokinetic analysis set (PKAS). Tertiary Efficacy Endpoints Nasal Symptoms: • Change from baseline in AM subject-reported rTNSS over the 14-day treatment period. • Change from baseline in AM subject-reported iTNSS over the 14-day treatment period. • Change from baseline in PM subject-reported rTNSS over the 14-day treatment period. • Change from baseline in PM subject-reported iTNSS over the 14-day treatment period. • Change from baseline in subject-reported reflective individual nasal symptoms over the 14-day treatment period (AM, PM and average of AM and PM). • Change from baseline in subject-reported instantaneous individual nasal symptoms over the 14-day treatment period (AM, PM and average of AM and PM). • Change from baseline in average AM and PM subject-reported rTNSS and iTNSS for each day. • Change from baseline in AM subject-reported rTNSS and iTNSS for each day. • Change from baseline in PM subject-reported rTNSS and iTNSS for each day. […]

[2] = Pharmacokinetics of mometasone furoate, single-dose three-period cross-over study, Example 13; assay type: in vivo, human; details: single dose nasal spray
Description: The pharmacokinetics of mometasone furoate in a fixed dose combination of mometasone furoate and olopatadine hydrochloride nasal spray was evaluated in a clinical trial. The clinical trial was a randomized, single-center, single-dose, open-label, three-period, six-sequence, cross-over study to evaluate three treatments administered by nasal spray. The three treatments included a combination of mometasone furoate and olopatadine hydrochloride nasal spray, mometasone furoate nasal spray and Nasonex® nasal spray. […] The study consisted of a screening visit, 3 single-dose treatment periods with washout periods of 7 to 14 days between dosing in each treatment period, an early withdrawal visit if applicable, and a follow-up telephone call (or visit) 1 to 7 days after completing the third treatment period. A total of 30 subjects were randomized to 1 of 6 treatment sequences and received at least 1 dose of study drug. All 30 subjects were included in the safety analysis set and the pharmacokinetic subset. All but 2 subjects completed the study per protocol.

[3] = tested on: sneezing response; experiment: Sneezing response in ovalbumin induced rhinitis model (whole body plethysmography); assay type: in vivo, guinea pigs; details: for Inhibition of sneezing response (in words) / Number of Sneeze (0-50 min): MF 10 μg; for Percent inhibition of sneeze: MF 10 μg per animal, vs ovalbumin control; for Number of Sneeze (0-50 min): intranasal, ovalbumin challenged
Description: Male Dunkin Hartley guinea pigs were actively sensitized with a subcutaneous injection of 1.5 mg of ovalbumin and 20 mg of aluminum hydroxide gel on days 0 and 7. Guinea pigs were sensitized intranasally with 2% ovalbumin from days 14-17. On day 28, the animals were challenged with 6% ovalbumin intranasally. Mometasone furoate 10 μg was given intranasally 24 hours and 1 hour prior to the final ovalbumin challenge. Olopatadine hydrochloride was given intranasally 1 hour before the final ovalbumin challenge. The dosing volume was 40 μl/animal. The saline control group and ovalbumin control group received vehicle (40 μl, 0.1% Tween 80 in distilled water). Sneezing response was determined by using whole body plethysmography (Buxco Research Systems, USA) for 50 minutes after final saline or ovalbumin challenge. The procedure in Example 1 was repeated except 120 μg of olopatadine hydrochloride (based on the equivalent weight of olopatadine free base) was used. The animal groups in Table 3 below were used during this experiment. Compound administration was performed as in Example 1, except the dosing volume was 60 μl/animal. The saline control group and ovalbumin control group received vehicle (60 μl, 0.1% Tween 80 in distilled water). In vivo evaluations were performed as in Example 1.

[4] = tested on: total cells and eosinophils in nasal lavage; experiment: Nasal lavage total cell count and eosinophils in ovalbumin induced rhinitis model; assay type: in vivo, guinea pigs; details: for Inhibition of total cell and eosinophils in nasal lavage (in words): MF 10 μg; for % inhibition of eosinophils / Percent inhibition of total cell count / Eosinophils × 10^5/ml nasal lavage / Total cell count × 10^5/ml nasal lavage: MF 10 μg per animal
Description: Male Dunkin Hartley guinea pigs were actively sensitized with a subcutaneous injection of 1.5 mg of ovalbumin and 20 mg of aluminum hydroxide gel on days 0 and 7. Guinea pigs were sensitized intranasally with 2% ovalbumin from days 14-17. On day 28, the animals were challenged with 6% ovalbumin intranasally. Mometasone furoate 10 μg was given intranasally 24 hours and 1 hour prior to the final ovalbumin challenge. Olopatadine hydrochloride was given intranasally 1 hour before the final ovalbumin challenge. The dosing volume was 40 μl/animal. The saline control group and ovalbumin control group received vehicle (40 μl, 0.1% Tween 80 in distilled water). Nasal lavage was performed at 4 hours after challenge of animals with saline or ovalbumin on day 28. Animals were anesthetized with an overdose of urethane, the trachea was exposed and nasal lavage was performed using 2 mL pre-warmed normal saline. The collected nasal lavage was taken for total cell count using a hemocytometer. The nasal lavage was centrifuged, and the cell pellet resuspended in 15 μL guinea pig serum and used for preparation of smears. Slides were stained with Leishman's stain and a differential cell count of 100 cells based on standard morphology was performed manually. The total number of eosinophils in each nasal lavage sample was calculated using the formula: [formula] Percent inhibition of eosinophils was calculated using the following formula: The procedure in Example 1 was repeated except 120 μg of olopatadine hydrochloride (based on the equivalent weight of olopatadine free base) was used. The animal groups in Table 3 below were used during this experiment. Compound administration was performed as in Example 1, except the dosing volume was 60 μl/animal. The saline control group and ovalbumin control group received vehicle (60 μl, 0.1% Tween 80 in distilled water). In vivo evaluations were performed as in Example 1.

[5] = Pharmacokinetics of olopatadine, single-dose three-period cross-over study, Example 12; assay type: in vivo, human; details: single dose nasal spray
Description: The pharmacokinetics of olopatadine in a fixed dose combination of mometasone furoate and olopatadine hydrochloride nasal spray was evaluated in a clinical trial. The clinical trial was a randomized, single-center, single-dose, open-label, three-period, six-sequence, cross-over study to evaluate three treatments administered as a nasal spray. The three treatments included a combination of mometasone furoate and olopatadine hydrochloride nasal spray, olopatadine hydrochloride nasal spray and […]® nasal spray. […] The study consisted of a screening visit, 3 single-dose treatment periods with washout periods of 7 to 14 days between dosing in each treatment period, an early withdrawal visit if applicable, and a follow-up telephone call (or visit) 1 to 7 days after completing the third treatment period. A total of 30 subjects were randomized to 1 of 6 treatment sequences and received at least 1 dose of study drug. All 30 subjects were included in the safety analysis set and the pharmacokinetic subset. All but 2 subjects completed the study per protocol.

[6] = Crystallization of olopatadine hydrochloride in the fixed dose combination aqueous suspension versus pH; assay type: physicochemical
[7] = Example 1, per animal: OH 50 μg, combination 50 (OH) & 10 (MF)
[8] = Example 2, per animal: OH 120 μg, combination 120 (OH) & 10 (MF)
[9] = Example 1, OH 50 μg, 4 hours after challenge

SMILES	Inhibition of sneezing response (in words) ([3]; Example 1, OH 50 μg)	Percent inhibition of sneeze ([3]; Example 1, OH 50 μg)	Number of Sneeze (0-50 min) [3, 7]	Inhibition of sneezing response (in words) ([3]; Example 2, OH 120 μg)	Percent inhibition of sneeze ([3]; Example 2, OH 120 μg)	Number of Sneeze (0-50 min) [3, 8]	Inhibition of total cell and eosinophils in nasal lavage (in words) ([4]; Example 1, OH 50 μg)	% inhibition of eosinophils ([4]; Example 1, OH 50 μg)	Percent inhibition of total cell count ([4]; Example 1, OH 50 μg)	Eosinophils × 10^5/ml nasal lavage [4, 9]	Total cell count × 10^5/ml nasal lavage [4, 9]	Inhibition of total cell and eosinophils in nasal lavage (in words) ([4]; Example 2, OH 120 μg)	% inhibition of eosinophils ([4]; Example 2, OH 120 μg)	Eosinophils × 10^5/ml nasal lavage ([4]; Example 2, OH 120 μg)	Percent inhibition of total cell count ([4]; Example 2, OH 120 μg)	Total cell count × 10^5/ml nasal lavage ([4]; Example 2, OH 120 μg)	also measured
C[C@@H]1C[C@H]2[C@@H]3CCC4=CC(=O)C=C[C@]4(C)[C@@]3(Cl)[C@@H](O)C[C@]2(C)[C@@]1(OC(=O)c1ccco1)C(=O)CCl [Mometasone Furoate, Mometasone furoate]	not effective	15%	18.83	not effective	−5%	37.33	significant inhibition	46%	46%	2.00* × 10^5/ml	3.90* × 10^5/ml	significant inhibition	20%	2.69 × 10^5/ml	30%	4.96 × 10^5/ml	Mometasone furoate AUCtau, Geo Mean ([1]; Day 1): 0.02616 ng·h/mL; Mometasone furoate AUCtau, Mean ([1]; Day 1): 0.02856 ng·h/mL; Mometasone furoate AUCtau, Min-Max ([1]; Day 1): 0.01211 to 0.07254 ng·h/mL; Mometasone furoate Cmax, Geo Mean ([1]; Day 1): 6.27 pg/mL; Mometasone furoate Cmax, Mean ([1]; Day 1): 6.78 pg/mL; Mometasone furoate Cmax, Min-Max ([1]; Day 1): 2.67 to 12.80 pg/mL; Mometasone furoate Tmax, Median ([1]; Day 1): 1.00 h; Mometasone furoate AUCtau, Geo Mean ([1]; Day 8): 0.05267 ng·h/mL; Mometasone furoate AUCtau, Mean ([1]; Day 8): 0.0584 ng·h/mL; Mometasone furoate AUCtau, Min-Max ([1]; Day 8): 0.02568 to 0.12405 ng·h/mL; Mometasone furoate Cmax, Geo Mean ([1]; Day 8): 9.17 pg/mL; Mometasone furoate Cmax, Mean ([1]; Day 8): 9.92 pg/mL; Mometasone furoate Cmax, Min-Max ([1]; Day 8): 3.58 to 16.10 pg/mL; Mometasone furoate Tmax, Median ([1]; Day 8): 1.00 h; Last time point until which quantifiable concentrations were observed [2]: 72 h
CN(C)CC/C=C1/c2ccccc2COc2ccc(CC(=O)O)cc21.Cl [Olopatadine Hydrochloride, (Z)-11-[3-(dimethylamino)propylidene]-6,11-dihydrodibenz[b,e]oxepin-2-acetic acid hydrochloride]	did not show significant inhibition	45%	12.29	did not show significant inhibition	51%	17.90	did not show significant inhibition	2%	3%	3.64 × 10^5/ml	6.63 × 10^5/ml	did not show significant inhibition	8%	3.08 × 10^5/ml	17%	5.83 × 10^5/ml	Olopatadine Tmax, Median ([1]; human, in vivo): 1.00 h; Last time point until which quantifiable concentrations were observed [5]: 48 h; State of olopatadine hydrochloride in the fixed dose combination aqueous suspension ([6]; pH of 5 to 5.5): crystallizes out; State of olopatadine hydrochloride in the aqueous suspension ([6]; pH of about 3.3 to about 4.1): remains dissolved
